For 12 molecules, GI50 and TGI results are on record in PubChem BioAssay (NCI).

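All cell lines were grown in 96-well plates and treated with compound for 48 hours. At the GI50, growth is halved. The concentration for full growth arrest is given as TGI.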 Some results are limits rather than exact numbers.

Test systems include NCI-H226 lung; BT-549 breast; HCC-2998 colon; OVCAR-3 ovarian; MALME-3M melanoma; A498 renal; NCI-H23 lung; HT29 colon.
Holding throughout (assay): NCI tumour cell line growth inhibition, 48 h

For `CCCCCCCCCCCC1=NC(C)(C)CN1C(C)C`, the GI50 in the assay on NCI-H226 lung was 6.16 µM; in the assay on BT-549 breast it was 9.22 µM; in the assay with HCC-2998 colon, 1.71 µM; with OVCAR-3 ovarian, 1.94 µM; in the assay on MALME-3M melanoma, 1.92 µM; in the assay on A498 renal, 4.78 µM. Besides, the GI50 in the assay on NCI-H23 lung is 2.98 µM. Besides, the TGI in the assay on NCI-H226 lung was 22 µM; in the assay with BT-549 breast it was 23.4 µM; in the assay on HCC-2998 colon, 3.27 µM; with OVCAR-3 ovarian, 6.14 µM; in the assay on MALME-3M melanoma, 4.32 µM; with A498 renal it was 19.3 µM. Besides, the TGI with NCI-H23 lung was found to be 11.3 µM.

Turning to `CCCCCCCCCCCC(c1ccccc1)[N+](C)(C)C` (stereo not given), the GI50 was 1.97 µM in the assay on NCI-H226 lung; 1.31 µM in the assay on BT-549 breast; 0.815 µM in the assay on OVCAR-3 ovarian; 0.296 µM in the assay with HT29 colon; 1.29 µM with MALME-3M melanoma; 1.99 µM in the assay with A498 renal. The GI50 with NCI-H23 lung is 1 µM. The TGI worked out at 7.22 µM in the assay with NCI-H226 lung; 2.95 µM in the assay on BT-549 breast; 2.35 µM in the assay with OVCAR-3 ovarian; 2.45 µM with HT29 colon; 2.91 µM with MALME-3M melanoma; 7.24 µM in the assay with A498 renal. In addition, the TGI in the assay on NCI-H23 lung came out at 5.86 µM.

As for `CCN(CC)CC(C(=O)Nc1c(C)cccc1C)/C(C)=N\NC(=S)NN` (stereo not given), the TGI in the assay on NCI-H226 lung, with HCC-2998 colon, in the assay on OVCAR-3 ovarian, with HT29 colon, in the assay with MALME-3M melanoma and in the assay with A498 renal was greater than 100 µM each time. In the assay on NCI-H23 lung, the TGI was greater than 100 µM.

For the molecule `C=CCn1c(SCC(=O)Nc2ccc(C(=O)/C=C/c3cc(OC)c(OC)c(OC)c3)cc2)nnc1-c1cc(OC)c(OC)c(OC)c1`, the GI50 was 2.14 µM with BT-549 breast; 2.05 µM with HCC-2998 colon; 2.98 µM in the assay with OVCAR-3 ovarian; 2.66 µM with HT29 colon; 11.1 µM in the assay with MALME-3M melanoma; 7.4 µM with A498 renal. In the assay with NCI-H23 lung, the GI50 was 3.41 µM. Moreover, the TGI was 6.25 µM in the assay on BT-549 breast; 4.48 µM with HCC-2998 colon; 8.46 µM in the assay on OVCAR-3 ovarian; 6.14 µM in the assay on HT29 colon; 64.4 µM with MALME-3M melanoma; 20.3 µM in the assay with A498 renal. For the same molecule, the TGI with NCI-H23 lung came to 26 µM.

As to `CN1CCN(CCCOC(=O)c2c3c(n4ccccc24)C(=O)c2ncccc2C3=O)CC1`, the GI50 in the assay on NCI-H226 lung is 0.0178 µM; with BT-549 breast, 0.426 µM; in the assay with HCC-2998 colon, less than 0.0135 µM; in the assay with OVCAR-3 ovarian, 0.0403 µM; in the assay with HT29 colon, 0.164 µM; in the assay with MALME-3M melanoma, 0.0265 µM. Moreover, in the assay on NCI-H23 lung, the GI50 is less than 0.01 µM. In addition, the TGI in the assay on NCI-H226 lung is 1.08 µM; in the assay with BT-549 breast it was 16.3 µM; in the assay with HCC-2998 colon it was 1.98 µM; in the assay on OVCAR-3 ovarian, 4.95 µM; in the assay on HT29 colon, 2.18 µM; in the assay on MALME-3M melanoma it was 1.14 µM. Besides, the TGI in the assay on NCI-H23 lung was less than 0.0172 µM.

For the molecule `[Cu].c1ccc2c(c1)C1=NC2=NC2=NC(=NC3=NC(=NC4=NC(=N1)c1ccccc14)c1ccccc13)c1ccccc12`, the GI50 in the assay on BT-549 breast, in the assay on HCC-2998 colon, in the assay on OVCAR-3 ovarian, with HT29 colon, with MALME-3M melanoma and in the assay with A498 renal was greater than 100 µM in each case. In addition, the GI50 in the assay on NCI-H23 lung was greater than 100 µM. The TGI in the assay on BT-549 breast, in the assay with HCC-2998 colon, in the assay with OVCAR-3 ovarian, with HT29 colon, in the assay on MALME-3M melanoma and in the assay on A498 renal was greater than 100 µM throughout. The molecule further came in with a TGI in the assay on NCI-H23 lung greater than 100 µM.

With `O=C(O)CN(CCN(CC(=O)O)CC(=O)O)CCN(CC(=O)O)CC(=O)O`, the GI50 with NCI-H226 lung is 4.65 µM; in the assay with BT-549 breast, 2.77 µM; in the assay with HCC-2998 colon, 4.42 µM; with OVCAR-3 ovarian, 3.51 µM; in the assay on HT29 colon, 3.99 µM; with A498 renal, 1.86 µM. In addition, the GI50 in the assay on NCI-H23 lung is 2.45 µM. Moreover, the TGI with NCI-H226 lung is 16.5 µM; in the assay with BT-549 breast, 9.45 µM; in the assay on HCC-2998 colon, 27 µM; in the assay with OVCAR-3 ovarian, 9.84 µM; in the assay with HT29 colon it was 16.2 µM; with A498 renal it was 15.1 µM. Also, the TGI in the assay on NCI-H23 lung turned out to be 10.2 µM.

Take `CC(C)CC(NC(=O)C(O)C(N)Cc1ccccc1)C(=O)O` (stereo not given): the TGI with NCI-H226 lung, in the assay with HCC-2998 colon, in the assay with OVCAR-3 ovarian, with HT29 colon, with MALME-3M melanoma and in the assay on NCI-H23 lung was greater than 100 µM throughout.

Turning to `O=C(O)c1c2c(c(O)c3c1CN(C1CCCCC1)CO3)OCN(C1CCCCC1)C2`, the TGI with BT-549 breast is greater than 100 µM; in the assay on HCC-2998 colon, 84.1 µM; in the assay with OVCAR-3 ovarian it was greater than 100 µM; in the assay on HT29 colon, greater than 100 µM; in the assay on MALME-3M melanoma, greater than 100 µM; with A498 renal, greater than 100 µM. Also, in the assay on NCI-H23 lung, the TGI was greater than 100 µM.

In the case of `Cc1cc2c(cc1Cl)SC(=Nc1ccc(Cl)cc1)N(S(=O)(=O)c1ccc(Br)s1)S2(=O)=O`, the GI50 in the assay with NCI-H226 lung is 14 µM; in the assay on BT-549 breast, 19.2 µM; in the assay on OVCAR-3 ovarian it was 15 µM; with A498 renal, 5.02 µM; with NCI-H23 lung, 10.8 µM. Also, the TGI with NCI-H226 lung was 47.1 µM; in the assay with BT-549 breast, 48.8 µM; in the assay with OVCAR-3 ovarian, 31.1 µM; in the assay on A498 renal, 26.2 µM; with NCI-H23 lung, 25 µM.

For `OC(c1ccccc1)c1c(-c2ccccc2)[nH]c(-c2ccccc2)c1C(O)c1ccccc1` (stereo not given), the TGI was found to be 7.32 µM with NCI-H226 lung; 22.4 µM with HCC-2998 colon; 8.33 µM in the assay with OVCAR-3 ovarian; 17.5 µM in the assay on HT29 colon; 7.17 µM in the assay on MALME-3M melanoma; 8.73 µM in the assay with A498 renal. The TGI in the assay with NCI-H23 lung was 16.5 µM.

As to `C=CC(=O)N1CCN([C@@H](CC2CC2)c2ccc([C@H](C)Nc3ncc4c(n3)N(CC)C(=O)OC4)cc2)CC1`, the GI50 is 14.1 µM in the assay on NCI-H226 lung; 4.7 µM in the assay on BT-549 breast; 13 µM in the assay on HCC-2998 colon; 12 µM in the assay on OVCAR-3 ovarian; 17.5 µM in the assay on HT29 colon; 15.9 µM in the assay with MALME-3M melanoma. Further, in the assay on A498 renal, the GI50 is 11.2 µM. The TGI turned out to be 34.7 µM in the assay with NCI-H226 lung; 16.6 µM in the assay on BT-549 breast; 28 µM in the assay on HCC-2998 colon; 26.5 µM in the assay on OVCAR-3 ovarian; 50.7 µM in the assay with HT29 colon; 30.8 µM in the assay on MALME-3M melanoma. In the assay with A498 renal, this molecule yielded a TGI of 23.6 µM.
